Values of other authors as cited in patent publication US20040219231A1, “Production of concentrated biocidal solutions” (priority 2000, published 2004).

Key:
[1] = not given; remark: listed apart in the source

Structure (SMILES) | solubility in water | Vapor Pressure (25° C.) [1] [mm]
CC1(C)C(=O)N(Cl)C(=O)N1Br [BCDMH, 1,3-bromochloro-5,5-dimethylhydantoin] | around 0.15% | 
BrBr [Bromine (Br2), Bromine] |  | 214
ClBr [Bromine Chloride (BrCl), Bromine Chloride] |  | 1800
